Laboratory results taken from patent US20240018146A1, “COMPOSITIONS AND METHODS OF USING THE SAME FOR TREATMENT OF NEURODEGENERATIVE AND MITOCHONDRIAL DISEASE” (MITOKININ, INC., priority 2020, published 2024).
Like-named read-outs stand apart in the source and are kept apart here.

Assays:
HeLa MKYP cells [1] = experiment: Human mitophagy assay (HeLa mKeima assay, FACS); assay type: cell-based; conditions: read-out: Mitophagy induction EC50
Procedure: Briefly, HeLa MKYP cells were plated at 10,000 cells/well in 96 well plates along with compounds at various concentrations. Following 16 hrs of incubation, cells were treated with 1 uM FCCP/oligomycin for 6 hours, then analyzed via FACS for the presence of mitochondria in lysosomes (as determined by an emissions spectrum shift from the pH-sensitive mtKeima tag).
Briefly, HeLa cells expressing a mitophagy indicator (mtKeima) protein were treated with […] of FCCP and Oligomycin followed by the specified dose of compound, then analyzed by FACS to quantify the percentage of cells undergoing mitophagy.

HeLa MKYP cells [2] = experiment: Cell death measured by DAPI staining, with 1 μM FCCP/oligomycin or no toxin (no FO); assay type: cell-based
Procedure: EP-0035985, EP-0037821, EP-0038098, and EP-0038099 in the presence of 1 μM FCCP/oligomycin or with no toxin (no FO) for 6 hrs. H2O2 treatment was performed as a control for cell death as measured by DAPI staining.
EP-0035985, EP-0038461, EP-0038463, and EP-0038503 in the presence of 1 μM FCCP/oligomycin or with no toxin (no FO) for 6.5 hrs. H2O2 treatment was performed as a control for cell death as measured by DAPI staining.
EP-0035985, EP-0038504, EP-0038508, and EP-0038521 in the presence of 1 μM FCCP/oligomycin or with no toxin (no FO) for 6.5 hrs. H2O2 treatment was performed as a control for cell death as measured by DAPI staining.
EP-0035985, EP-0038461, EP-0038463, EP-0038503, EP-0038504, EP-0038508, and EP-0038521 in the presence of 1 μM FCCP/oligomycin or with no toxin (no FO) for 6.5 hrs. H2O2 treatment was performed as a control for cell death as measured by DAPI staining.

Row | Compound | EC50 (HeLa MKYP cells [1]; Homo sapiens, HeLa) [µM] | Highest safe dose (cytotoxicity; no FO; safe means DAPI+ <20%) (HeLa MKYP cells [2]) [µM] | Max % death with 1 μM FO (HeLa MKYP cells [2]) [%] | EC50 (HeLa MKYP cells [1]) [µM]
1 | C[C@@H]1CN([C@H]2COc3ccccc3[C@@H]2Nc2ncnc3[nH]c(C(F)(F)F)cc23)C[C@H](C)O1 [EP-0040942] | > 25 | 25.0 | 4.7 | –
2 | CO[C@H]1CCN([C@@H]2COc3ccccc3[C@H]2Nc2ncnc3[nH]c(C(F)(F)F)cc23)C1 [EP-0041173] | 4.09 | 25.0 | 6.1 | –
3 | N#Cc1cn([C@@H]2CCc3ccccc3[C@@H]2Nc2ncnc3[nH]c(C(F)(F)F)cc23)cn1 [EP-0039748] | 8.07 | 25.0 | 6.5 | –
4 | [2H]C([2H])([2H])OC1CN([C@@H]2COc3ccccc3[C@H]2Nc2ncnc3[nH]c(C(F)(F)F)cc23)C1 (racemic) [EP-0041327] | > 25 | 25.0 | 4.1 | –
5 | C[C@@H]1CN([C@@H]2CCc3ccccc3[C@H]2Nc2ncnc3[nH]c(C(F)(F)F)cc23)CCO1 (single isomer, unassigned) [EP-0040492] | > 25 | 25.0 | 1.8 | –
6 | FC(F)(F)c1cc2c(N[C@H]3c4ccccc4CC[C@H]3OC3CCOCC3)ncnc2[nH]1 (single isomer, unassigned) [EP-0039733] | 9.33 | 25.0 | 3.1 | –
7 | FC(F)(F)c1cc2c(N[C@H]3c4ccccc4OC[C@@H]3N3CCC4(COC4)C3)ncnc2[nH]1 (single isomer, unassigned) [EP-0041516] | 3.24 | 25.0 | 11.8 | –
8 | Fc1ccc2c(c1)OC[C@H](N1C[C@H]3COC[C@@H]3C1)[C@H]2Nc1ncnc2[nH]c(C(F)(F)F)cc12 (single isomer, unassigned) [EP-0040563] | – | 25.0 | 9.7 | 1.05
9 | c1ccc2c(c1)CC[C@@H](N1C[C@H]3COC[C@@H]3C1)[C@@H]2Nc1ncnc2[nH]c(C3CC3)cc12 [EP-0040767] | > 25 | 25.0 | 7.9 | –
10 | C[C@@H]1CN([C@@H]2COc3cc(F)ccc3[C@H]2Nc2ncnc3[nH]c(C4CC4)cc23)CCO1 [EP-0041123] | 11 | 25.0 | 7.3 | –
11 | FC1(F)CN(C2COc3ccccc3C2Nc2ncnc3[nH]c(C4CC4)cc23)C1 (racemic) [EP-0041566] | 1 | 25.0 | 30.0 | –
12 | FC(F)(F)c1cc2c(N[C@@H]3c4ccccc4CC[C@H]3C3CCOCC3)ncnc2[nH]1 (single isomer, unassigned) [EP-0040581] | 2.69 | 25.0 | 8.1 | –
13 | C[C@H]1CN([C@H]2COc3cc(F)ccc3[C@@H]2Nc2ncnc3[nH]c(C(F)(F)F)cc23)CCO1 [EP-0040981] | 2.44 | 25.0 | 7.0 | –
14 | FC(F)(F)c1cc2c(NC3c4ccccc4OCC3N3CCC4(CCOC4)CC3)ncnc2[nH]1 (stereo not drawn) [EP-0040545] | > 25 | 25.0 | 3.7 | –
15 | FC(F)(F)c1cc2c(N[C@H]3c4ccccc4CC[C@@H]3N3CCCOCC3)ncnc2[nH]1 [EP-0040139] | 3.66 | 25.0 | 8.5 | –
16 | FC(F)(F)c1cc2c(NC3c4ccccc4CCC3N3CCC4(CCOC4)CC3)ncnc2[nH]1 (stereo not drawn) [EP-0040589] | > 25 | 25.0 | 19.4 | –
17 | COC[C@H]1CCN([C@H]2COc3ccccc3[C@@H]2Nc2ncnc3[nH]c(C(F)(F)F)cc23)C1 (single isomer, unassigned) [EP-0041174] | – | 25.0 | 4.6 | 15.3
18 | C[S@](=N)(=O)C1CN([C@H]2COc3ccccc3[C@@H]2Nc2ncnc3[nH]c(C(F)(F)F)cc23)C1 (single isomer, unassigned) [EP-0041497] | – | 25.0 | 2.6 | 22

Row | Compound | EC50 (HeLa MKYP cells [1]; Homo sapiens, HeLa) [µM] | Highest safe dose (cytotoxicity; no FO; safe means DAPI+ <20%) (HeLa MKYP cells [2]) [µM] | Max % death with 1 μM FO (HeLa MKYP cells [2]) [%] | EC50 (HeLa MKYP cells [1]) [µM]
19 | OC[C@@H]1CCCN1[C@H]1CCc2ccccc2[C@@H]1Nc1ncnc2[nH]c(C3CC3)cc12 [EP-0040085] | > 25 | 8.3 | 38.1 | –
20 | FC(F)(F)c1cc2c(N[C@H]3c4ccccc4OC[C@@H]3N3CCOCC3)ncnc2[nH]1 (single isomer, unassigned) [EP-0040251] | > 25 | 25.0 | 3.1 | –
21 | FC(F)(F)c1cc2c(N[C@H]3c4ccccc4OC[C@@H]3C3CCCOC3)ncnc2[nH]1 (single isomer, unassigned) [EP-0041002] | 6.18 | 25.0 | 4.5 | –
22 | C[C@@H]1COCCN1[C@H]1CCc2ccccc2[C@@H]1Nc1ncnc2[nH]c(C3CC3)cc12 (single isomer, unassigned) [EP-0040358] | – | 2.8 | 97.8 | > 25
23 | FC(F)OC1CN([C@H]2COc3ccccc3[C@@H]2Nc2ncnc3[nH]c(C(F)(F)F)cc23)C1 (racemic) [EP-0041542] | – | 25.0 | 3.8 | > 25
24 | CC1(O)CN([C@@H]2COc3ccccc3[C@H]2Nc2ncnc3[nH]c(C(F)(F)F)cc23)C1 (single isomer, unassigned) [EP-0041264] | > 25 | 25.0 | 2.5 | –
25 | c1ccc2c(c1)C[C@H](N1C[C@H]3COC[C@H]3C1)[C@H]2Nc1ncnc2[nH]c(C3CC3)cc12 [EP-0040075] | > 25 | 25.0 | 6.5 | –
26 | C[C@H]1COCCN1[C@@H]1CCc2ccccc2[C@H]1Nc1ncnc2[nH]c(C(F)(F)F)cc12 (single isomer, unassigned) [EP-0040193] | – | 25.0 | 29.7 | 9.46
27 | [2H]C([2H])([2H])OC1CN([C@H]2COc3ccccc3[C@@H]2Nc2ncnc3[nH]c(C(F)(F)F)cc23)C1 (single isomer, unassigned) [EP-0041248] | 0.49 | 25.0 | 10.5 | –
28 | FC1COCCC1[C@H]1COc2ccccc2[C@@H]1Nc1ncnc2[nH]c(C(F)(F)F)cc12 (single isomer, unassigned) [EP-0041325] | – | 25.0 | 5.5 | 18.8
29 | C[C@H]1CN([C@@H]2CCc3ccccc3[C@H]2Nc2ncnc3[nH]c(C4CC4)cc23)CCO1 (single isomer, unassigned) [EP-0040512] | 12.1 | 25.0 | 26.7 | –
30 | CO[C@H]1CCN([C@@H]2COc3ccccc3[C@H]2Nc2ncnc3[nH]c(C4CC4)cc23)C1 [EP-0041518] | > 25 | 25.0 | 7.4 | –
31 | c1ccc2c(c1)CC[C@@H](C1CCOCC1)[C@@H]2Nc1ncnc2[nH]c(C3CC3)cc12 [EP-0040727] | 2.85 | 25.0 | 7.7 | –
32 | OC(C1CCOCC1)C1COc2ccccc2C1Nc1ncnc2[nH]c(C(F)(F)F)cc12 (single isomer, unassigned) [EP-0041270] | – | 25.0 | 11.6 | 0.86
33 | OC(C1CCOCC1)[C@H]1COc2ccccc2[C@@H]1Nc1ncnc2[nH]c(C(F)(F)F)cc12 (stereo partly drawn) [EP-0041135] | 1.53 | 25.0 | 15.7 | –
34 | CO[C@@H]1CCN([C@@H]2COc3ccccc3[C@H]2Nc2ncnc3[nH]c(C(F)(F)F)cc23)C1 [EP-0041162] | > 25 | 25.0 | 4.2 | –
35 | C[C@@H]1CN([C@@H]2CCc3ccccc3[C@H]2Nc2ncnc3[nH]c(C4CC4)cc23)C[C@H](C)O1 (single isomer, unassigned) [EP-0040499] | 5.2 | 25.0 | 4.3 | –
